Drawing on US10030027B2, “Soluble guanylate cyclase stimulators” (MERCK SHARP & DOHME CORP., priority 2015, dated 2018), this text covers Ki, Emax and EC50 for 17 compounds.

Molecules are shown by their SMILES.

The target in assay [1] is human recombinant sGC enzyme (Homo sapiens (Human), UniProt Q02108+Q02153). The assay can be described thus: Size Exclusion Chromatography (SEC) competition binding assay using [3H] Ex-77B as the radioligand. The settings on record: [3H] Ex-77B radioligand, 24 hours at 37° C. The procedure: Binding Assay: The binding potencies of sGC compounds to the human recombinant sGC enzyme were determined in a Size Exclusion Chromatography (SEC) competition binding assay using [^3H] Ex-77B as the radioligand. [^3H] Ex-77B was prepared using a standardardized tritium exchange procedure. The parent (non-labeled) molecule was first iodinated then a Pd-catalyzed iodine to tritium exchange provided the labeled compound. […] Assays were conducted in 96-well plates in a total volume of 200 μL. […] Non-specific binding was defined by competition with 1 μM of Ex-77B. After the incubation period, the binding mixtures were loaded onto the gel-filtration plate (ThermoFischer Cat. No. 89808) pre-equilibrated with binding buffer and spun at 1000×g for 3 min at 4° C. on a Bench top centrifuge. The collected eluates in White Frame Clear Well Isoplates (Perkin Elmer Cat #6005040) received 100 μl of UltimaGold scintillation cocktail. The sealed plates were shaken vigorously and span, and counted after 6 hours with a Wallac Microbeta TriLux 1450 LSC & Luminescence Counter (Perkin Elmer). Data from competition experiments were analyzed to determine Ki values using one site fit Ki equation.

The target in the next assay is sGC α1/β1 heterodimer (Homo sapiens (Human), UniProt Q02108+Q02153). The assay can be described thus: Cell-based sGC functional assay (cyclic GMP assay for sGC activator: CASA assay). The settings on record: CHO-K1/sGC cells; for Emax: CHO-K1, activity expressed as percentage of compound A (standard), read-out: % Activation; for EC50: inflection point, 4P fit, read-out: IP. The source says:
Cell-Based sGC Functional Assay (Cyclic GMP Assay for sGC Activator: CASA Assay)
Soluble guanylate cyclase (sGC) is a heme-containing enzyme that converts GTP to secondary messenger cGMP. Increases in cGMP levels affect several physiological processes including vasorelaxation through multiple downstream pathways. […] Heme-dependent activators (HDAs) preferentially activate sGC containing a ferrous heme group. To determine the effect of sGC activators on enzyme activity, the CASA assay was developed to monitor the generation of cGMP in a cell line that stably expresses the heterodimeric sGC protein.
A CHO-K1 cell line stably expressing the sGC α1/β1 heterodimer was generated using a standard transfection protocol. CHO-K1 cells were transfected with plasmids pIREShyghsGCα1 and pIRESneo-hsGCβ1 simultaneously using FUGENE reagent. Clones that stably express both subunits were selected with hygromycin and neomycin for ˜2 weeks. Clone #7 was chosen for the assay and was designated CHO-K1/sGC. CHO-K1/sGC cells were maintained in F-K12 medium containing 10% heat-inactivated Fetal Bovine Serum (FBS), 100 μg/mL penicillin/streptomycin, 0.5 mg/mL hygromycin and 0.25 mg/mL G418. The cells were then cryopreserved in LN2. On the day of the assay, the cells were thawed and resuspended in EBSS Assay Buffer (Sigma, E3024) supplemented with 5 mM MgCl2, 10 mM HEPES (4-(2-hydroxyethyl)piperazine-1-ethanesulfonic acid) and 0.05% BSA (bovine serum albumin) (EAB) and cell density was then adjusted to 2.25×10^5/mL with EAB. IBMX (3-isobutyl-1-methylxanthin, 0.5 mM) was added to inhibit degradation of cGMP. Compounds were diluted from DMSO stock solutions and added to the assay at a final DMSO concentration of 2.5%. Cells were pre-incubated in the presence and absence of 1 μM of Diethylenetriamine/nitric oxide adduct (DETA-NO; Sigma, 17018) for 30 min at 25° C. Compounds are subsequently added and incubated for 1 hr at 37° C. At the end of the incubation period, the reaction was terminated and the cells were lysed with the detection reagents from Cisbio Kits. The level of intracellular cGMP was determined using an HTRF-based assay kit (CisBio, 62GM2PEC), which detects the displacement of a fluorescence labeled cGMP from its specific antibody. The cGMP produced by test compounds was directly compared to the maximum cGMP production (this value was set to equal 100% activation.) of the published sGC-HDA compound A:
(Example 1 in WO 2010/065275, published Jun. 10, 2010). The test compounds' activity were then expressed as a percentage of compound A, the standard in every experiment. This percent activation was calculated either in the presence or absence of DETA-NO which was then plotted. Inflection points (IP) and maximum fold induction was derived using Abase analysis software for 4P fit.

For orientation: Ki means the dissociation constant of the complex between target and ligand, obtained from inhibition or displacement. For the compound `C[C@@]1(c2ccc(CCc3nn[nH]n3)cc2)C(=O)Nc2nc(-c3nn(Cc4ncccc4F)c4ccccc34)nc(N)c21` [Example 245B, (S)-5-{4-[2-(2H-tetrazol-5-yl)ethyl]phenyl}-4-amino-2-{1-[(3-fluoro-pyridin-2-yl)methyl]-1H-indazol-3-yl}-5-methyl-5,7-dihydro-6H-pyrrolo[2,3-d] pyrimidin-6-one], the Ki in assay [1] was found to be 0.333 nM.

Consider `CC1(c2ccc(C(=O)O)cc2)C(=O)Nc2nc(-c3nn(CCC(F)(F)C(F)(F)F)c4cc(Cl)ccc34)nc(N)c21` (stereo not shown) [Example 155B, 4-{4-amino-2-[6-chloro-1-(3,3,4,4,4-pentafluorobutyl)-1H-indazol-3-yl]-5-methyl-6-oxo-6,7-dihydro-5H-pyrrolo[2,3-d]pyrimidin-5-yl} benzoic acid], for which the Ki in assay [1] turned out to be 0.42 nM.

For the compound `CC(C)(Cc1coc(C2(C)C(=O)Nc3nc(-c4nn(CC5CCCCO5)c5cc(F)ccc45)nc(N)c32)n1)C(=O)O` (single isomer, unassigned) [Example 134AB, 3-{2-[4-amino-2-{6-fluoro-1-[tetrahydro-2H-pyran-2-ylmethyl]-1H-indazol-3-yl}-5-methyl-6-oxo-6,7-dihydro-5H-pyrrolo[2,3-d]pyrimidin-5-yl]-1,3-oxazol-4-yl}-2,2-dimethylpropanoic acid], the inhibitory constant (Ki) in assay [1] is 0.461 nM.

As to `CC1CCC(Cn2nc(-c3nc(N)c4c(n3)NC(=O)[C@@]4(C)c3nc(CC(C)(C)C(=O)O)cs3)c3cccnc32)CC1` (single isomer, unassigned) [Example 125AA], in assay [1], the Ki is 0.783 nM.

As for `C[C@@]1(c2ccc(CCC(=O)O)cc2)C(=O)Nc2nc(-c3nn(Cc4ccc(F)cc4)c4cc(Cl)ccc34)nc(N)c21` [Example 65B, (S)-3-(4-{4-amino-2-[6-chloro-1-(4-fluorobenzyl)-1H-indazol-3-yl]-5-methyl-6-oxo-6,7-dihydro-5H-pyrrolo[2,3-d]pyrimidin-5-yl}phenyl)propanoic acid], on sGC α1/β1 heterodimer, the Emax was found to be 136% and the EC50 turned out to be 1100 nM.

Take `CC1(c2cc(C(=O)O)ccn2)C(=O)Nc2nc(-c3nn(Cc4ccccc4F)c4cc(Cl)ccc34)nc(N)c21` (stereo not shown) [Example 219A, 2-{4-amino-2-[6-chloro-1-(2-fluorobenzyl)-1H-indazol-3-yl]-5-methyl-6-oxo-6,7-dihydro-5H-pyrrolo[2,3-d]pyrimidin-5-yl} pyridine-4-carboxylic acid]: the Ki in assay [1] was found to be 0.183 nM.

In the case of `C[C@@]1(c2ccc(CCC(=O)O)cc2)C(=O)Nc2nc(-c3nn(Cc4ccccc4F)c4ccc(Cl)cc34)nc(N)c21` [Example 73B, (S)-3-(4-{4-amino-2-[5-chloro-1-(2-fluorobenzyl)-1H-indazol-3-yl]-5-methyl-6-oxo-6,7-dihydro-5H-pyrrolo[2,3-d]pyrimidin-5-yl}phenyl)propanoic acid], on sGC α1/β1 heterodimer, the Emax stood at 87% and the EC50 was found to be 85 nM.

As for `CC1(c2cccc(-c3nn[nH]n3)c2)C(=O)Nc2nc(-c3nn(CCC(F)(F)C(F)(F)F)c4cc(Cl)ccc34)nc(N)c21` (single isomer, unassigned) [Example 251B, 4-amino-2-[6-chloro-1-(3,3,4,4,4-penta-fluorobutyl)-1H-indazol-3-yl]-5-methyl-5-[3-(1H-tetrazol-5-yl)phenyl]-5,7-dihydro-6H-pyrrolo[2,3-d] pyrimidin-6-one], the Ki in assay [1] is 0.182 nM.

Regarding `CC(C)(Cc1coc(C2(C)C(=O)Nc3nc(-c4nn(CC5CCCCO5)c5ccccc45)nc(N)c32)n1)C(=O)O` (single isomer, unassigned) [Example 230AB, 3-{2-[4-amino-5-methyl-6-oxo-2-{1-[tetrahydro-2H-pyran-2-ylmethyl]-1H-indazol-3-yl}-6,7-dihydro-5H-pyrrolo[2,3-d]pyrimidin-5-yl]-1,3-oxazol-4-yl}-2,2-dimethyl-propanoic acid], the Ki in assay [1] was 0.28 nM.

With `CC(C)(Cc1coc(C2(C)C(=O)Nc3nc(-c4nn(Cc5ccccc5F)c5ccc(Cl)cc45)nc(N)c32)n1)C(=O)O` (stereo not shown) [Example 74A, 3-(2-{4-amino-2-[5-chloro-1-(2-fluorobenzyl)-1H-indazol-3-yl]-5-methyl-6-oxo-6,7-dihydro-5H-pyrrolo[2,3-d]pyrimidin-5-yl}oxazol-4-yl)-2,2-dimethylpropanoic acid], at sGC α1/β1 heterodimer, the Emax is 94% and the EC50 turned out to be 62 nM.

With `CC1(c2cccc(CCC(=O)O)c2)C(=O)Nc2nc(-c3nn(Cc4ccccc4F)c4ccccc34)nc(N)c21` (stereo not shown) [Example 53A, 3-(3-{4-amino-2-[1-(2-fluorobenzyl)-1H-indazol-3-yl]-5-methyl-6-oxo-6,7-dihydro-5H-pyrrolo[2,3-d]pyrimidin-5-yl}phenyl)propanoic acid], on sGC α1/β1 heterodimer, the Emax was 102% and the EC50 stood at 124 nM.

For the compound `CC(C)(Cc1ccc(C2(C)C(=O)Nc3nc(-c4nn(CCC(F)(F)C(F)(F)F)c5ncccc45)nc(N)c32)nc1)C(=O)O` (stereo not shown) [Example 8B, 3-(6-{4-amino-5-methyl-6-oxo-2-[1-(3,3,4,4,4-pentafluoro-butyl)-1H-pyrazolo[3,4-b]pyridin-3-yl]-6,7-dihydro-5H-pyrrolo[2,3-d]pyrimidin-5-yl}pyridin-3-yl)-2,2-dimethyl-propanoic acid], at sGC α1/β1 heterodimer, the Emax turned out to be 129% and the EC50 came out at 1360 nM.

In the case of `CC1(c2cccc(CCC(=O)O)c2)C(=O)Nc2nc(-c3nn(Cc4ccccc4F)c4ncc(F)cc34)nc(N)c21` (stereo not shown) [Example 24A, 3-(3-{4-amino-2-[5-fluoro-1-(2-fluorobenzyl)-1H-pyrazolo[3,4-b]pyridin-3-yl]-5-methyl-6-oxo-6,7-dihydro-5H-pyrrolo[2,3-d]pyrimidin-5-yl}phenyl)propanoic acid], at sGC α1/β1 heterodimer, the Emax was 106% and the EC50 was determined as 210 nM.

Regarding `CC1(c2nc(CCCC(=O)O)cs2)C(=O)Nc2nc(-c3nn(Cc4ccccc4F)c4ccccc34)nc(N)c21` (stereo not shown) [Example 55A, 4-(2-{4-amino-2-[1-(2-fluorobenzyl)-1H-indazol-3-yl]-5-methyl-6-oxo-6,7-dihydro-5H-pyrrolo[2,3-d]pyrimidin-5-yl}thiazol-4-yl)butanoic acid], on sGC α1/β1 heterodimer, the Emax was determined as 105% and the EC50 came out at 432 nM.

With `CC(C)(Cc1coc(C2(C)C(=O)Nc3nc(-c4nn(CC5CCCCO5)c5ncccc45)nc(N)c32)n1)C(=O)O` (single isomer, unassigned) [Example 124AB, 3-{2-[4-amino-5-methyl-6-oxo-2-{1-[tetrahydro-2H-pyran-2-ylmethyl]-1H-pyrazolo[3,4-b]pyridin-3-yl}-6,7-dihydro-5H-pyrrolo[2,3-d]pyrimidin-5-yl]-1,3-oxazol-4-yl}-2,2-dimethylpropanoic acid], the Ki in assay [1] came out at 0.617 nM.

Regarding `CC1(c2nc(CC(=O)O)cs2)C(=O)Nc2nc(-c3nn(CCC(F)(F)C(F)(F)F)c4ncccc34)nc(N)c21` (stereo not shown) [Example 78A, (2-{4-Amino-5-methyl-6-oxo-2-[1-(3,3,4,4,4-pentafluorobutyl)-1H-pyrazolo[3,4-b]pyridin-3-yl]-6,7-dihydro-5H-pyrrolo[2,3-d]pyrimidin-5-yl}-1,3-thiazol-4-yl)acetic acid], the Emax at sGC α1/β1 heterodimer worked out at 93%.

In the case of `CC[C@@H](NC(=O)CCc1ccc([C@]2(C)C(=O)Nc3nc(-c4nn(Cc5ccccc5F)c5ncccc45)nc(N)c32)cc1)C(=O)O` [Example 104B, (5S,2R)-2-(3-(4-{4-amino-2-[1-(2-fluorobenzyl)-1H-pyrazolo[3,4-b]pyridin-3-yl]-5-methyl-6-oxo-6,7-dihydro-5H-pyrrolo[2,3-d]pyrimidin-5-yl}phenyl)propanamido)butanoic acid], on sGC α1/β1 heterodimer, the Emax is 106% and the EC50 turned out to be 1370 nM.
